# Target: T1, TLR9 (Homo sapiens, UniProt Q9NR96)
# T1 construct: Fresh blood was collected from normal human donors; endogenous in cells; host or cells: human PBMCs from fresh donor blood
# T1 sequence (Q9NR96 26-1032): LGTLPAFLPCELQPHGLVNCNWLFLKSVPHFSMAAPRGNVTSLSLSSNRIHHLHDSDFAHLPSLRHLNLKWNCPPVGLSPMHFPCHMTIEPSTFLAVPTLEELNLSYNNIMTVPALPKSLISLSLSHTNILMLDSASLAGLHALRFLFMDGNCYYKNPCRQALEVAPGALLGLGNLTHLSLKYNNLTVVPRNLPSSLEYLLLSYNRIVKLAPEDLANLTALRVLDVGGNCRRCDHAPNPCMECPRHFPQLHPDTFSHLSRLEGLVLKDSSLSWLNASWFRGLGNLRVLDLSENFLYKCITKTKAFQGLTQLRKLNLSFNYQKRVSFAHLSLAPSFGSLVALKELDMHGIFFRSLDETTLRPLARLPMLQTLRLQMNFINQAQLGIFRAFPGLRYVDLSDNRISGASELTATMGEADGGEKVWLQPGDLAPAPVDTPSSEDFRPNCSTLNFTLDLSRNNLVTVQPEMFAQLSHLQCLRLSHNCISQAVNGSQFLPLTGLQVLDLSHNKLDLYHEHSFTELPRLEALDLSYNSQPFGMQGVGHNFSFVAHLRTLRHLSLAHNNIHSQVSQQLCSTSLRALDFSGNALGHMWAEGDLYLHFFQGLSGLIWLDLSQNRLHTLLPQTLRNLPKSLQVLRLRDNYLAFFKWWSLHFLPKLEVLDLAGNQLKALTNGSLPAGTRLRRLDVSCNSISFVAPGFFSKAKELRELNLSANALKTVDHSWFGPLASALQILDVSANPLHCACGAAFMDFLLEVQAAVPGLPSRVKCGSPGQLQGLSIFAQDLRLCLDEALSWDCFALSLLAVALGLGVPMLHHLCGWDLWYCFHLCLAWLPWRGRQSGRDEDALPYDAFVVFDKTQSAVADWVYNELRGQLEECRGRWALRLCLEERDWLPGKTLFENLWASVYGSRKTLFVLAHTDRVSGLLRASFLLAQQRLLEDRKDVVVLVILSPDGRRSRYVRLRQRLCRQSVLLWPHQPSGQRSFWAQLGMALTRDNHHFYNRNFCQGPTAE
# Test: huPBMC TLR9 Antagonist IFNα Assay
# Assay type: cell-based
# Conditions: human PBMCs stimulated with ODN2216 0.3 μM, 14-16 hrs; IFNα2b AlphaLISA read-out
# Method in brief: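 Human PBMCs from fresh donor blood (150,000 cells/well) stimulated 14–16 h at 37 °C with DOTAP-complexed ssRNA40 (final 1 μg/ml for TLR8, 10 μg/mL for TLR7) or ODN2216 (final 0.3 μM, TLR9), 0.25% DMSO, ten-point 1/3 compound dilutions. Supernatant IL-6 read by HTRF (TLR8); IFNα by IFNα2b AlphaLISA (TLR7/TLR9).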
row,SMILES,IC50
1,"Cc1nn(CC23CCC(N)(CC2)CC3)c2c1CN(c1ccnc(-c3ccc(C#N)cc3)c1)CC2 [Compound No. 84, 4-(4-(1-((4-aminobicyclo[2.2.2]octan-1-yl)methyl)-3-methyl-6,7-dihydro-1H-pyrazolo[4,3-c]pyridin-5(4H)-yl)pyridin-2-yl)benzonitrile]",1840 nM
2,"Cc1cc(N2CCc3c(c(C)nn3CC34CCC(NC(C)CO)(CC3)CC4)C2)c2cnn(C)c2n1 (stereo not drawn) [compound 56, 2-((4-((5-(1,6-dimethyl-1H-pyrazolo[3,4-b]pyridin-4-yl)-3-methyl-4,5,6,7-tetrahydro-1H-pyrazolo[4,3-c]pyridin-1-yl)methyl)bicyclo[2.2.2]octan-1-yl)amino)propan-1-ol]",680 nM
3,"Cc1cc(N2CCc3c(c(C)nn3CC34CCC(N5C[C@H](O)[C@@H](O)C5)(CC3)CC4)C2)c2cnn(C)c2n1 [compound 80, (3S,4S)-1-(4-((5-(1,6-dimethyl-1H-pyrazolo[3,4-b]pyridin-4-yl)-3-methyl-4,5,6,7-tetrahydro-1H-pyrazolo[4,3-c]pyridin-1-yl)methyl)bicyclo[2.2.2]octan-1-yl)pyrrolidine-3,4-diol]",249 nM

# More lines, in order of falling IC50, values ahead:
row,IC50,SMILES
1,2170 nM,"Cc1cc(N2CCc3c(c(C)nn3CC34CCC(N5CCOCC5)(CC3)CC4)C2)c2cnn(C)c2n1 [Compound No. 59, 4-(4-((5-(1,6-dimethyl-1H-pyrazolo[3,4-b]pyridin-4-yl)-3-methyl-4,5,6,7-tetrahydro-1H-pyrazolo[4,3-c]pyridin-1-yl)methyl)bicyclo[2.2.2]octan-1-yl)morpholine]"
2,639 nM,"Cc1cc(N2CCc3c(c(C)nn3CC34CCC(N5CCCC5)(CC3)CC4)C2)c2cnn(C)c2n1 [Compound No. 58, 5-(1,6-dimethyl-1H-pyrazolo[3,4-b]pyridin-4-yl)-3-methyl-1-((4-(pyrrolidin-1-yl)bicyclo[2.2.2]octan-1-yl)methyl)-4,5,6,7-tetrahydro-1H-pyrazolo[4,3-c]pyridine]"
3,442 nM,"COCCNC12CCC(Cn3nc(C)c4c3CCN(c3cc(C)nc5c3cnn5C)C4)(CC1)CC2 [Compound No. 69, 4-((5-(1,6-dimethyl-1H-pyrazolo[3,4-b]pyridin-4-yl)-3-methyl-4,5,6,7-tetrahydro-1H-pyrazolo[4,3-c]pyridin-1-yl)methyl)-N-(2-methoxyethyl)bicyclo[2.2.2]octan-1-amine]"
